How the values were obtained:
[1] = xn = mol fraction of the nth substance listed; settings: 101 kPa, Liquid
[2] = refractive index (Na D-line) (dimensionless); xn = mol fraction of the nth substance listed; settings: 101 kPa, Liquid
[3] = refractive index (Na D-line) (dimensionless); settings: 101.33 kPa, Liquid
[4] = 101 kPa, Liquid

CN(C)C=O [dimethylformamide] + COc1ccccc1
x2 = 0
Settings | mass density, 298.15 K [kg/m3] | mass density, 303.15 K [kg/m3] | mass density, 308.15 K [kg/m3] | refractive index, 298.15 K | refractive index, 303.15 K | refractive index, 308.15 K | speed of sound, 298.15 K [m/s] | viscosity, 298.15 K [mPa·s] | viscosity, 303.15 K [mPa·s] | viscosity, 308.15 K [mPa·s]
[1] | 943.9 | 939.5 | 935 | – | – | – | 1462 | 0.801 | 0.754 | 0.711
[2] | – | – | – | 1.4288 | 1.4264 | 1.4238 | – | – | – | –

ClC(Cl)=C(Cl)Cl [tetrachloroethene]
Settings | mass density, 298.15 K [kg/m3] | mass density, 303.15 K [kg/m3] | mass density, 308.15 K [kg/m3] | refractive index, 298.15 K | refractive index, 303.15 K | refractive index, 308.15 K | speed of sound, 298.15 K [m/s] | viscosity, 298.15 K [mPa·s] | viscosity, 303.15 K [mPa·s] | viscosity, 308.15 K [mPa·s]
[3] | – | – | – | 1.5036 | 1.501 | 1.498 | – | – | – | –
[4] | 1614.7 | 1606.9 | 1599 | – | – | – | 1038 | 0.861 | 0.817 | 0.782

ClC(Cl)=C(Cl)Cl [tetrachloroethene] + COc1ccccc1
Settings | mass density, 298.15 K [kg/m3] | mass density, 303.15 K [kg/m3] | mass density, 308.15 K [kg/m3] | refractive index, 298.15 K | refractive index, 303.15 K | refractive index, 308.15 K | speed of sound, 298.15 K [m/s] | viscosity, 298.15 K [mPa·s] | viscosity, 303.15 K [mPa·s] | viscosity, 308.15 K [mPa·s]
[1], x2 = 0 | 1614.7 | 1606.9 | 1599 | – | – | – | 1038 | 0.861 | 0.817 | 0.782
[1], x2 = 0.0979 | 1548.6 | 1540.9 | 1533.6 | – | – | – | 1065 | 0.859 | 0.818 | 0.776
[1], x2 = 0.1962 | 1483.4 | 1476.1 | 1469 | – | – | – | 1094 | 0.854 | 0.813 | 0.77
[1], x2 = 0.3035 | 1413.9 | 1407 | 1400.4 | – | – | – | 1127 | 0.854 | 0.811 | 0.767
[1], x2 = 0.4024 | 1350.9 | 1343.5 | 1337.9 | – | – | – | 1159 | 0.861 | 0.815 | 0.77
[1], x2 = 0.5044 | 1286.9 | 1280.5 | 1274.6 | – | – | – | 1195 | 0.874 | 0.825 | 0.776
[1], x2 = 0.6045 | 1225.3 | 1219.3 | 1213.5 | – | – | – | 1232 | 0.892 | 0.839 | 0.787
[1], x2 = 0.7033 | 1165.1 | 1159.6 | 1154.1 | – | – | – | 1271 | 0.909 | 0.855 | 0.799
[1], x2 = 0.8036 | 1105 | 1099.6 | 1094.5 | – | – | – | 1314 | 0.935 | 0.877 | 0.817
[1], x2 = 0.8974 | 1049.2 | 1044.8 | 1039.2 | – | – | – | 1359 | 0.961 | 0.898 | 0.835
[2], x2 = 0 | – | – | – | 1.5036 | 1.501 | 1.498 | – | – | – | –
[2], x2 = 0.0979 | – | – | – | 1.5044 | 1.5015 | 1.4986 | – | – | – | –
[2], x2 = 0.1962 | – | – | – | 1.5053 | 1.5023 | 1.4993 | – | – | – | –
[2], x2 = 0.3035 | – | – | – | 1.5065 | 1.5034 | 1.5004 | – | – | – | –
[2], x2 = 0.4024 | – | – | – | 1.5075 | 1.5044 | 1.5014 | – | – | – | –
[2], x2 = 0.5044 | – | – | – | 1.5086 | 1.5056 | 1.5026 | – | – | – | –
[2], x2 = 0.6045 | – | – | – | 1.5099 | 1.5069 | 1.504 | – | – | – | –
[2], x2 = 0.7033 | – | – | – | 1.5111 | 1.5083 | 1.5054 | – | – | – | –
[2], x2 = 0.8036 | – | – | – | 1.5124 | 1.5096 | 1.5068 | – | – | – | –
[2], x2 = 0.8974 | – | – | – | 1.5135 | 1.5101 | 1.508 | – | – | – | –
